Measured values as given in the supplement of paper PMC10307832.

Assays:
Experiment in all cases: relative viability (nuclei count vs DMSO), 5 days (fraction); higher = more cells survive
[1] = compound: C1=CC(=CC=C1NC(=S)NNC2=C(C=C(C=C2[N+](=O)[O-])C(F)(F)F)[N+](=O)[O-])F [Kobe2602] + Cc1nc(Nc2ncc(C(=O)Nc3c(C)cccc3Cl)s2)cc(N2CCN(CCO)CC2)n1 [Dasatinib] (partner 0.075 µM)
Summary of the method: (§1)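 Lung cancer cell lines in 1536-well plates got either a single drug or a fixed anchor-drug dose together with five library-drug doses (not always all listed) in √10 steps, by pin tool, on the day after seeding. Nuclei were counted after 5 days, and relative viability is the treated-to-vehicle ratio of nuclei counts. Values are medians of duplicate plates.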

[2] = compound: O[C@@H](COc1cccc2ncccc12)CN1CCN([C@@H]2c3ccccc3[C@@H]3[C@H](c4ccccc42)C3(F)F)CC1 [Zosuquidar] + NC(=O)Nc1cc(-c2cccc(F)c2)sc1C(=O)N[C@H]1CCCNC1 [AZD7762] (partner 0.2 µM)
Summary of the method: as §1

[3] = compound: COc1cc2nccc(Oc3ccc(NC(=O)C4(C(=O)Nc5ccc(F)cc5)CC4)cc3)c2cc1OC [Cabozantinib] + CC1(C)CCC(c2ccc(Cl)cc2)=C(CN2CCN(c3ccc(C(=O)NS(=O)(=O)c4ccc(N[C@H](CCN5CCOCC5)CSc5ccccc5)c(S(=O)(=O)C(F)(F)F)c4)cc3)CC2)C1 [Navitoclax] (partner 0.5 µM)
Summary of the method: as §1

[4] = compound: COc1cc2nccc(Oc3ccc(NC(=O)C4(C(=O)Nc5ccc(F)cc5)CC4)cc3)c2cc1OC [Cabozantinib] + CC(=O)c1c(C)c2cnc(Nc3ccc(N4CCNCC4)cn3)nc2n(C2CCCC2)c1=O [Palbociclib] (partner 0.5 µM)
Summary of the method: as §1

Row | Cell Line | relative viability ([1]; first compound 0.2 µM) | relative viability ([1]; first compound 0.6325 µM) | relative viability ([1]; first compound 2 µM) | relative viability ([1]; first compound 6.325 µM) | relative viability ([1]; first compound 20 µM) | relative viability ([2]; first compound 0.01 µM) | relative viability ([2]; first compound 0.03162 µM) | relative viability ([2]; first compound 0.1 µM) | relative viability ([2]; first compound 0.3162 µM) | relative viability ([2]; first compound 1 µM) | relative viability ([3]; first compound 0.02 µM) | relative viability ([3]; first compound 0.06325 µM) | relative viability ([3]; first compound 0.2 µM) | relative viability ([3]; first compound 0.6325 µM) | relative viability ([3]; first compound 2 µM) | relative viability ([4]; first compound 0.02 µM) | relative viability ([4]; first compound 0.06325 µM) | relative viability ([4]; first compound 0.2 µM) | relative viability ([4]; first compound 0.6325 µM) | relative viability ([4]; first compound 2 µM)
1 | HOP-62 | 0.646 | 0.69 | 0.593 | 0.689 | 0.721 | 0.619 | 0.771 | 0.512 | 0.802 | 0.631 | 1.13 | 0.987 | 1.07 | 1.05 | 1.13 | 0.503 | 0.488 | 0.416 | 0.506 | 0.491
2 | LC-2-ad | 0.562 | 0.642 | 0.454 | 0.636 | 0.686 | 0.78 | 0.855 | 0.883 | 0.842 | 0.787 | 0.454 | 0.57 | 0.541 | 0.35 | 0.325 | 0.569 | 0.569 | 0.472 | 0.367 | 0.341
3 | LCLC-97TM1 | 0.886 | 0.759 | 0.705 | 0.937 | 0.802 | 0.214 | 0.345 |  | 0.25 | 0.2 |  | 0.5 | 0.618 | 0.484 | 0.589 | 0.189 | 0.228 | 0.221 | 0.253 | 0.222
4 | LK-2 | 0.377 | 0.35 | 0.319 | 0.274 | 0.342 | 0.496 | 0.428 | 0.328 | 0.541 | 0.279 | 0.642 | 1 | 0.842 | 0.886 | 0.794 |  | 0.969 | 0.704 | 0.69 | 0.636
5 | LOU-NH91 | 0.506 | 0.596 | 0.476 | 0.535 | 0.617 | 0.761 | 0.807 | 0.637 | 0.793 | 0.74 | 0.72 | 0.845 | 0.441 | 0.666 | 0.7 | 0.527 | 0.518 | 0.558 | 0.549 | 0.557
6 | LU99A | 0.427 | 0.461 | 0.433 | 0.525 | 0.615 | 0.257 | 0.413 | 0.355 | 0.418 | 0.375 | 0.774 | 0.9 | 0.762 | 0.686 | 0.783 | 0.381 | 0.419 | 0.447 | 0.39 | 0.362
7 | LXF-289 | 0.253 | 0.23 | 0.248 | 0.208 | 0.245 | 1.13 | 1.18 | 1.07 | 1.12 | 1.14 | 0.991 | 0.934 | 0.926 | 0.927 | 0.933 | 0.582 | 0.625 | 0.532 | 0.618 | 0.559
8 | NCI-H23 | 0.697 | 0.879 | 0.776 | 0.817 | 1.02 | 0.319 |  | 0.2 | 0.331 | 0.224 |  | 0.913 | 0.972 | 0.71 | 0.644 |  | 0.541 | 0.579 | 0.541 | 0.437
9 | NCI-H322M | 0.254 | 0.25 | 0.245 | 0.241 | 0.297 | 0.586 | 0.507 | 0.495 | 0.56 | 0.49 | 1.24 | 1.4 |  | 1.2 | 1.19 | 0.533 | 0.565 | 0.446 | 0.498 | 0.454
10 | NCI-H441 | 0.66 | 0.606 | 0.71 | 0.699 | 0.621 | 0.991 | 1.33 | 1.09 | 1.23 | 1.19 |  | 0.508 | 0.393 | 0.578 | 0.662 | 0.157 | 0.286 | 0.181 | 0.23 | 0.184
11 | NCI-H460 | 0.504 | 0.518 | 0.507 | 0.49 | 0.575 | 0.54 | 0.571 | 0.6 | 0.607 | 0.509 | 1.46 | 1.39 | 1.09 | 1.11 | 1.24 | 0.168 | 0.243 | 0.245 | 0.187 | 0.165
12 | NCI-H647 | 0.244 | 0.338 | 0.158 | 0.17 | 0.2 | 0.417 | 0.392 | 0.322 | 0.681 | 0.516 | 0.994 | 1.15 | 1.06 | 1.11 | 0.886 | 0.47 | 0.456 | 0.406 | 0.335 | 0.358
13 | NCI-H727 | 0.376 | 0.384 | 0.342 | 0.484 | 0.392 | 0.502 | 0.573 |  | 0.714 | 0.405 | 0.355 | 0.408 | 0.463 | 0.441 | 0.507 | 0.648 | 0.689 | 0.577 | 0.62 | 0.616
14 | NCI-H838 | 0.264 | 0.309 | 0.249 | 0.291 | 0.289 | 0.939 | 0.997 | 0.898 | 0.948 | 0.904 | 1.21 | 1.19 | 1.12 | 1.03 | 1.03 | 0.216 | 0.244 | 0.231 | 0.218 | 0.21
15 | NCI-H1355 | 0.647 | 0.737 | 0.683 | 0.664 | 0.627 | 0.777 | 0.778 | 0.733 | 0.797 | 0.86 | 0.96 | 0.974 | 0.967 | 0.893 | 0.861 | 0.423 | 0.448 | 0.389 | 0.371 | 0.379
16 | NCI-H1395 | 0.468 | 0.456 | 0.452 | 0.442 | 0.442 | 0.398 | 0.373 |  | 0.409 | 0.429 | 1.13 | 1.1 | 1.41 | 1.12 | 1.12 | 0.631 | 0.79 | 0.626 | 0.642 | 0.54
